# Read-outs that look alike come from different tables or passages of the source.
# Legend:
# Type in all cases: cell-based
# [1] = molecular target: T1, GLP-1R (Homo sapiens, UniProt P43220); experiment: HitHunter cAMP assay (GLP-1R); settings: for Emax: read-out: (Emax) GLP-1R
# Procedure, shortened: (§1)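 Duplicate 22-point, 2-fold agonist titrations applied to receptor-expressing suspension cells in IBMX-containing HBSS; 30 min RT stimulation. Read: luminescent cAMP immunocompetition after O/N dark incubation.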
# [2] = molecular target: T2, GIP-R (Homo sapiens, UniProt P48546); experiment: HitHunter cAMP assay (GIP-R); settings: for Emax: read-out: (Emax) GIP-R
# T2 sequence (P48546 22-466): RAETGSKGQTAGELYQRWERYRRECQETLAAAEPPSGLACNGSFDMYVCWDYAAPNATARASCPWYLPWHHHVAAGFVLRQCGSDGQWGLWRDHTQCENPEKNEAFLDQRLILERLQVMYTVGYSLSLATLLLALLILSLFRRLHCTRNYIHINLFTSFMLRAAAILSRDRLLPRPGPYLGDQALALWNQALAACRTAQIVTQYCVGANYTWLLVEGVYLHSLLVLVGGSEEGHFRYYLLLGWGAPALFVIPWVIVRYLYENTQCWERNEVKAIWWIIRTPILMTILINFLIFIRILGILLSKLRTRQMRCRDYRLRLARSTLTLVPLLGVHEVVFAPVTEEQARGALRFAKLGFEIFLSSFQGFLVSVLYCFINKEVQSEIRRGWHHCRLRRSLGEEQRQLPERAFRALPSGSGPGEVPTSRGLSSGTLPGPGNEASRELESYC
# Procedure, shortened: as §1
# [3] = molecular target: T1, GLP-1R; experiment: PathHunter β-arrestin assay
# Procedure, shortened: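 Following a 90 min agonist exposure at 37 °C in 0.2% BSA medium, β-arrestin coupling was detected by chemiluminescence after 3 h at room temperature.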
# T1 sequence (P43220 24-463): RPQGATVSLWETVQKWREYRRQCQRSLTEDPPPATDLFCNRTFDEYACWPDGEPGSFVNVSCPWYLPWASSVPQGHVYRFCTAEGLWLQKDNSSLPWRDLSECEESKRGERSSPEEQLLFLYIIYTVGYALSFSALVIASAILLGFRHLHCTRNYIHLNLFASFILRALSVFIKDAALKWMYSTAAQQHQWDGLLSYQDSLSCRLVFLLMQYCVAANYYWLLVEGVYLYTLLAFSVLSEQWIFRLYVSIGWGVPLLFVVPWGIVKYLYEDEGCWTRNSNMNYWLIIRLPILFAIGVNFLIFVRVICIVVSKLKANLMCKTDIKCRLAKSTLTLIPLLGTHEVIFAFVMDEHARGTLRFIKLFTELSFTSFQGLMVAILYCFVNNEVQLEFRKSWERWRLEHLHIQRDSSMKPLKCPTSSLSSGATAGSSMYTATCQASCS
Compound,"Emax ([1]; Table 3, cAMP)","EC50 ([1]; Table 3, cAMP, read-out: EC50 GLP-1R/nM)","Emax ([1]; Table 3A, cAMP)","EC50 ([1]; Table 3A, cAMP, read-out: EC50 GLP-1R/nM)","Emax ([2]; Table 3, cAMP)","EC50 ([2]; Table 3, cAMP, read-out: EC50 GIP-R/nM)","Emax ([2]; Table 3A, cAMP)","EC50 ([2]; Table 3A, cAMP, read-out: EC50 GIP-R/nM)","EC50 ([3]; PathHunter β-arrestin assay, read-out: β-arrestin activity EC50)",EC50 [1],Emax [1],"EC50 ([1]; read-out: EC50 GLP-1R/nM, Table 3A, cAMP)","EC50 ([2]; EC50 GIP-R/nM, Table 3, cAMP)","EC50 ([2]; EC50 GIP-R/nM, Table 3A, cAMP)",Emax [2],EC50 [3],"EC50 ([1]; EC50 GLP-1R/nM, Table 3, cAMP)","EC50 ([1]; EC50 GLP-1R/nM, Table 3A, cAMP)"
CCCCCCCCCCCCCCCC(=O)N[C@@H](CCC(=O)NCCCC[C@H](NC(=O)[C@H](CO)NC(=O)[C@@H]1CCCN1C(=O)[C@@H]1CCCN1C(=O)[C@@H]1CCCN1C(=O)[C@H](C)NC(=O)CNC(=O)[C@H](CO)NC(=O)[C@H](CO)NC(=O)[C@@H]1CCCN1C(=O)CNC(=O)CNC(=O)[C@H](C)NC(=O)[C@H](CC(C)C)NC(=O)[C@H](CC(C)C)NC(=O)[C@H](Cc1c[nH]c2ccccc12)NC(=O)[C@H](CC(N)=O)NC(=O)[C@@H](NC(=O)[C@H](Cc1ccccc1)NC(=O)[C@H](CCC(=O)O)NC(=O)C(C)(C)NC(=O)[C@H](C)NC(=O)[C@H](C)NC(=O)[C@H](CCC(N)=O)NC(=O)[C@H](CCCCN)NC(=O)[C@H](CC(=O)O)NC(=O)[C@H](CC(C)C)NC(=O)[C@H](Cc1ccc(O)cc1)NC(=O)[C@@H](NC(=O)[C@H](CO)NC(=O)[C@H](Cc1ccc(O)cc1)NC(=O)[C@H](CC(=O)O)NC(=O)[C@H](CO)NC(=O)[C@@H](NC(=O)[C@H](Cc1ccccc1)NC(=O)[C@@H](NC(=O)CNC(=O)[C@H](CCC(=O)O)NC(=O)C(C)(C)C(=O)NCCN1CCCCC1=O)[C@@H](C)O)[C@@H](C)O)[C@@H](C)CC)C(C)C)C(N)=O)C(=O)O [Compound 19],93%,< 0.1 nM,93%,< 0.1 nM,50%,0.1 to 1 nM,50%,0.1 to 1 nM,< 10 nM,–,–,–,–,–,–,–,–,–
CCCCCCCCCCCCCCCC(=O)N[C@@H](CCC(=O)NCCCC[C@H](NC(=O)[C@H](CO)NC(=O)[C@@H]1CCCN1C(=O)[C@@H]1CCCN1C(=O)[C@@H]1CCCN1C(=O)[C@H](C)NC(=O)CNC(=O)[C@H](CO)NC(=O)[C@H](CO)NC(=O)[C@@H]1CCCN1C(=O)CNC(=O)CNC(=O)[C@H](C)NC(=O)[C@H](CC(C)C)NC(=O)[C@H](CC(C)C)NC(=O)[C@H](Cc1c[nH]c2ccccc12)NC(=O)[C@H](CC(N)=O)NC(=O)[C@@H](NC(=O)[C@H](Cc1ccccc1)NC(=O)[C@H](CCC(=O)O)NC(=O)C(C)(C)NC(=O)[C@H](C)NC(=O)[C@H](C)NC(=O)[C@H](CCC(N)=O)NC(=O)[C@H](CCCCN)NC(=O)[C@H](CC(=O)O)NC(=O)[C@H](CC(C)C)NC(=O)[C@H](Cc1ccc(O)cc1)NC(=O)[C@@H](NC(=O)[C@H](CO)NC(=O)[C@H](Cc1ccc(O)cc1)NC(=O)[C@H](CC(=O)O)NC(=O)[C@H](CO)NC(=O)[C@@H](NC(=O)[C@H](Cc1ccccc1)NC(=O)[C@@H](NC(=O)CNC(=O)[C@H](CCC(=O)O)NC(=O)CCCCC(=O)NCCN1CCCCC1=O)[C@@H](C)O)[C@@H](C)O)[C@@H](C)CC)C(C)C)C(N)=O)C(=O)O [Compound 20],–,–,–,–,–,–,–,–,–,0.1 to 1 nM,91%,0.1 to 1 nM,1 to 10 nM,10 to 100 nM,22%,> 1000 nM,–,–
CCCCCCCCCCCCCCCC(=O)N[C@@H](CCC(=O)NCCCC[C@H](NC(=O)[C@H](CO)NC(=O)[C@@H]1CCCN1C(=O)[C@@H]1CCCN1C(=O)[C@@H]1CCCN1C(=O)[C@H](C)NC(=O)CNC(=O)[C@H](CO)NC(=O)[C@H](CO)NC(=O)[C@@H]1CCCN1C(=O)CNC(=O)CNC(=O)[C@H](C)NC(=O)[C@H](CC(C)C)NC(=O)[C@H](CC(C)C)NC(=O)[C@H](Cc1c[nH]c2ccccc12)NC(=O)[C@H](CC(N)=O)NC(=O)[C@@H](NC(=O)[C@H](Cc1ccccc1)NC(=O)[C@H](CCC(=O)O)NC(=O)C(C)(C)NC(=O)[C@H](C)NC(=O)[C@H](C)NC(=O)[C@H](CCC(N)=O)NC(=O)[C@H](CCCCN)NC(=O)[C@H](CC(=O)O)NC(=O)[C@H](CC(C)C)NC(=O)[C@H](Cc1ccc(O)cc1)NC(=O)[C@@H](NC(=O)[C@H](CO)NC(=O)[C@H](Cc1ccc(O)cc1)NC(=O)[C@H](CC(=O)O)NC(=O)[C@H](CO)NC(=O)[C@@H](NC(=O)[C@H](Cc1ccccc1)NC(=O)[C@@H](NC(=O)CNC(=O)[C@H](CCC(=O)O)NC(=O)CSCC(=O)NCCN1CCC[C@H](O)C1=O)[C@@H](C)O)[C@@H](C)O)[C@@H](C)CC)C(C)C)C(N)=O)C(=O)O [Compound 21],95%,–,95%,–,20%,–,20%,–,–,–,–,–,1 to 10 nM,10 to 100 nM,–,> 1000 nM,< 0.1 nM,< 0.1 nM
CCCCCCCCCCCCCCCC(=O)N[C@@H](CCC(=O)NCCCC[C@H](NC(=O)[C@H](CO)NC(=O)[C@@H]1CCCN1C(=O)[C@@H]1CCCN1C(=O)[C@@H]1CCCN1C(=O)[C@H](C)NC(=O)CNC(=O)[C@H](CO)NC(=O)[C@H](CO)NC(=O)[C@@H]1CCCN1C(=O)CNC(=O)CNC(=O)[C@H](C)NC(=O)[C@H](CC(C)C)NC(=O)[C@H](CC(C)C)NC(=O)[C@H](Cc1c[nH]c2ccccc12)NC(=O)[C@H](CC(N)=O)NC(=O)[C@@H](NC(=O)[C@H](Cc1ccccc1)NC(=O)[C@H](CCC(=O)O)NC(=O)C(C)(C)NC(=O)[C@H](C)NC(=O)[C@H](C)NC(=O)[C@H](CCC(N)=O)NC(=O)[C@H](CCCCN)NC(=O)[C@H](CC(=O)O)NC(=O)[C@H](CC(C)C)NC(=O)[C@H](Cc1ccc(O)cc1)NC(=O)[C@@H](NC(=O)[C@H](CO)NC(=O)[C@H](Cc1ccc(O)cc1)NC(=O)[C@H](CC(=O)O)NC(=O)[C@H](CO)NC(=O)[C@@H](NC(=O)[C@H](Cc1ccccc1)NC(=O)[C@@H](NC(=O)CNC(=O)[C@H](CCC(=O)O)NC(=O)CSCC(=O)NCCN1C[C@@H](OC)CC1=O)[C@@H](C)O)[C@@H](C)O)[C@@H](C)CC)C(C)C)C(N)=O)C(=O)O [Compound 22],90%,–,90%,–,46%,–,46%,–,–,–,–,–,0.1 to 1 nM,0.1 to 1 nM,–,> 1000 nM,0.1 to 1 nM,0.1 to 1 nM
CCCCCCCCCCCCCCCC(=O)N[C@@H](CCC(=O)NCCCC[C@H](NC(=O)[C@H](CO)NC(=O)[C@@H]1CCCN1C(=O)[C@@H]1CCCN1C(=O)[C@@H]1CCCN1C(=O)[C@H](C)NC(=O)CNC(=O)[C@H](CO)NC(=O)[C@H](CO)NC(=O)[C@@H]1CCCN1C(=O)CNC(=O)CNC(=O)[C@H](C)NC(=O)[C@H](CC(C)C)NC(=O)[C@H](CC(C)C)NC(=O)[C@H](Cc1c[nH]c2ccccc12)NC(=O)[C@H](CC(N)=O)NC(=O)[C@@H](NC(=O)[C@H](Cc1ccccc1)NC(=O)[C@H](CCC(=O)O)NC(=O)C(C)(C)NC(=O)[C@H](C)NC(=O)[C@H](C)NC(=O)[C@H](CCC(N)=O)NC(=O)[C@H](CCCCN)NC(=O)[C@H](CC(=O)O)NC(=O)[C@H](CC(C)C)NC(=O)[C@H](Cc1ccc(O)cc1)NC(=O)[C@@H](NC(=O)[C@H](CO)NC(=O)[C@H](Cc1ccc(O)cc1)NC(=O)[C@H](CC(=O)O)NC(=O)[C@H](CO)NC(=O)[C@@H](NC(=O)[C@H](Cc1ccccc1)NC(=O)[C@@H](NC(=O)CNC(=O)[C@H](CCC(=O)O)NC(=O)CSCC(=O)NCCN1CCCN(C)C1=O)[C@@H](C)O)[C@@H](C)O)[C@@H](C)CC)C(C)C)C(N)=O)C(=O)O [Compound 23],83%,–,83%,–,37%,–,37%,–,–,–,–,–,1 to 10 nM,1 to 10 nM,–,> 1000 nM,1 to 10 nM,1 to 10 nM
CCCCCCCCCCCCCCCC(=O)N[C@@H](CCC(=O)NCCCC[C@H](NC(=O)[C@H](CO)NC(=O)[C@@H]1CCCN1C(=O)[C@@H]1CCCN1C(=O)[C@@H]1CCCN1C(=O)[C@H](C)NC(=O)CNC(=O)[C@H](CO)NC(=O)[C@H](CO)NC(=O)[C@@H]1CCCN1C(=O)CNC(=O)CNC(=O)[C@H](C)NC(=O)[C@H](CC(C)C)NC(=O)[C@H](CC(C)C)NC(=O)[C@H](Cc1c[nH]c2ccccc12)NC(=O)[C@H](CC(N)=O)NC(=O)[C@@H](NC(=O)[C@H](Cc1ccccc1)NC(=O)[C@H](CCC(=O)O)NC(=O)C(C)(C)NC(=O)[C@H](C)NC(=O)[C@H](C)NC(=O)[C@H](CCC(N)=O)NC(=O)[C@H](CCCCN)NC(=O)[C@H](CC(=O)O)NC(=O)[C@H](CC(C)C)NC(=O)[C@H](Cc1ccc(O)cc1)NC(=O)[C@@H](NC(=O)[C@H](CO)NC(=O)[C@H](Cc1ccc(O)cc1)NC(=O)[C@H](CC(=O)O)NC(=O)[C@H](CO)NC(=O)[C@@H](NC(=O)[C@H](Cc1ccccc1)NC(=O)[C@@H](NC(=O)CNC(=O)[C@H](CCC(=O)O)NC(=O)CSCC(=O)NCCN1CCNC(=O)C1=O)[C@@H](C)O)[C@@H](C)O)[C@@H](C)CC)C(C)C)C(N)=O)C(=O)O [Compound 24],92%,–,92%,–,15%,–,15%,–,–,–,–,–,1 to 10 nM,100 to 1000 nM,–,> 1000 nM,0.1 to 1 nM,0.1 to 1 nM

# Source: patent US20260176320A1, “MODULATORS OF G-PROTEIN COUPLED RECEPTORS” (priority 2018, published 2026)
